According to publication PMC6211230, “Assessment of the antiproliferative and apoptotic roles of sulfonamide carbonic anhydrase IX inhibitors in HeLa cancer cell line” (Journal of Enzyme Inhibition and Medicinal Chemistry, 2018):

What was measured:
Type in all cases: cell-based, human
HeLa cells [1] = experiment: AO/EB double staining; settings: 10 and 25 μM, 24 h
Protocol: At 24 h after the plating of HeLa cells in 12-well plates at 5 × 10^4 cell/ml, sulfonamide derivative compounds at concentrations of 10 and 25 μM were added to the plates, and the cells were incubated at 37 °C for 24 h. The cells were then washed with PBS, and released for incubation in a solution including 100 μl (acridine orange (100 µg/ml) and ethidium bromide (100 µg/ml) at room temperature for 5 min. The morphological fluctuations indicating apoptosis were investigated under fluorescent microscopy (Olympus CKX 53, DP73, Tokyo, Japan).

HeLa cells [2] = experiment: Western blot of cleaved caspases 3, 8, 9 and cleaved PARP; settings: most notably 10 μM, 24 h
Protocol: The cells were seeded on 6 cm^2 cell culture dishes, and treated with sulfonamide compounds, at doses of 10 and 25 μM, for 24 h. The cells were then washed with cold PBS, which was followed by lysis with RIPA lysis buffer (10 mM Tris-HC1 pH =8, 1 mM EDTA, 1 mM EGTA, 140 mM NaCl, 1% TritonX-100, 0.1 SDS, 0.1% Sodium deoxycholate), 1X phosphates and protease inhibitor (Santa Cruz Biotechnology, Dallas, USA). The acquired supernatants from the lysates which were centrifuged at 12000 g, +4 °C, for 10 min, were transferred to new tubes. Protein concentration was detected using the protein assay kit BCA (Thermo Fisher Scientific, Waltham, MA). After a 30-min period of protein (50 µg) standing in 10% SDS-PAGE gel at 50 V and at 80 V for 3 h, those were blotted to PVDF membrane at 70 V for 5 min (Bio-Rad Turbo Transfer System, Segrate (MI), Italy). After embedding in 1X TBST (12,1 gr Tris, pH 7.5, 70 gr NaCl, 0.1% Tween-20) containing 5% dry milk or 5% BSA, the primer monoclonal antibodies Cleaved Caspase 3,8,9, Cleaved PARP (Millipore) CA IX and Beta-actin, were applied to the membrane and left overnight, which was followed by washing with 1X TBS-T and an incubation period with secondary antibodies of HRP rabbit (Cell signaling, Danvers, MA, USA) or mouse (1/10.000) for 60 min. […]

HEK-293 = experiment: WST-1 cytotoxicity, HEK-293 normal cells; settings: HEK-293 normal cell
Protocol: Cancer and normal cell lines were purchased from ATCC and stored in liquid nitrogen. HT-29 (colon adenoma cancer), HeLa (cervix adenoma cancer cell), MDA-MB-231 (breast adenoma cancer cell) and HEK-293 (embryonic kidney epithelial cell), PNT-1A (normal prostate cells) cell lines were incubated in DMEM: F-12 and RPMI-1640, including 10% Foetal Bovine Serum (FBS), 100 μg/mL streptomycin/100 IU/mL penicillin, at 37 °C in an incubator containing 5% CO2, 95% air in a humid atmosphere.
The cytotoxic effects of the substances were evaluated with WST-1 kits (Roche, Germany) in accordance with the manufacturer’s protocols. The cells were plated on 96-well plates (10^4 cells in each well). After incubation for 24 h, the media were discarded and the substances and Cisplatin as the control drug, at doses of 0, 2.5, 5, 10, 25, 50, 100, and 200 μM, were incubated for 24, 48, and 72 h. WST-1 reactive of 10 µl was added to all wells. Following 4 h incubation, the measurements were taken on a plate reader (Spectramax M5) at wavelengths of 450 and 630 nm. Graphs were then created and the IC50 value of each substance was calculated.

HeLa cells [3] = experiment: Intracellular pH (BCFL-AM fluorometric kit); settings: 0–25 μM
Protocol: (§1) Intracellular pH was measured according to the protocol of the fluorometric Intracellular pH Assay Kit (Sigma, Schnelldorf, Germany, MAK-150). Fluorescent BCFL-AM indicator that was able to pass through the cell membrane was used to measure intracellular pH fluctuations in the fluorometric intracellular pH kit. BCFL-AM was utilised to measure the reductions in intracellular pH of the cells that had been treated by various conditions. The cells were plated on black plates, as 6 × 10^4 in each well of the plate, and incubated for 24 h. The medium was replaced with BCFL-AM Reagent which had been prepared in 100 µl of HBS solution (Hank’s buffer with 20 mM HEPES, 5 mM Probenecid), then the cells were incubated at 37 °C in an atmosphere of 5% CO2 for 30 min (protected from light). Sulfonamide compound at doses of 0–25 μM was added to the HBS solution. In the next 5 min, the measurement was performed at wavelengths of 490 nm (excitation) 535 nm (emission) in spectrofluorimetry (Spectramax, M5). Extracellular pHe and lactate levels were measured with commercial kit by the blood gas device (ABL90 FLEX PLUS, Radiometer, Copenhagen, Denmark) which is routinely used in the clinical biochemistry laboratory of hospital. After the application of the substance in this method, the media were analysed directly by the device.

HeLa cells [4] = experiment: Extracellular pH (blood gas device); settings: HeLa media, dose-dependent, initial pHe 6.4
Protocol: as §1

HeLa cells [5] = experiment: Mitochondrial membrane potential (JC-1); settings: 0–25 μM
Protocol: Mitochondrial membrane potential (MMP) changes appearing in the intrinsic pathway of mitochondria were spectrophotometrically detected. MMP was measured in a Spectramax, M5 fluorimetric device, at wavelengths of 490 nm (excitation), 530 nm(emission) according to the fluorometric Mitochondria Staining Kit (Sigma-Aldrich, Schnelldorf, Germany, CS0390) protocol.

HeLa cells [6] = experiment: gamma-H2AX immunofluorescence (DNA damage); settings: 10 and 25 μM, 24 h
Protocol: HeLa cells (1 × 10^4/ml) were seeded in 12-well cell culture dishes and after 24 h they were administered with the sulfonamide derivative compounds at doses of 10 and 25 µM and incubated for 24 h. The cells were washed with PBS and fixed with 100% methanol at −20 °C overnight, which was followed by PBS washing three times for 10 min for each washing. The cells were treated with 0.2% Triton X-100 in a shaker, at room temperature for 5 min. They were washed with PBS, and 1% BSA-containing PBS was then added, and incubation with primary mouse monoclonal anti-γ-H2AX antibody (Cell Signalling Technology, Danvers, MA, USA) was applied at 37 °C for 1 h. The cells were washed with PBS for 5 min three times. Secondary goat anti-mouse Alexa-488-conjugated IgG (Invitrogen, Thermo Fisher Scientific, Waltham, MA, USA) was administered and the cells were incubated at 37 °C for 20 min, followed by PBS washing for 4–5 min three times. 1 ml 70% EtOH was added, and at +4 °C, released to incubation for 5 min. 1 ml 100% EtOH was added in a shaker, which was then incubated at room temperature for 1–2 min. The nucleus was stained with DAPI and the images were recorded using an Olympus Inverted fluorescence microscope (Olympus CKX 53, DP73, Tokyo, Japan).

With `NS(=O)(=O)c1ccc(CCN=Cc2cc(Cl)ccc2O)cc1` [Compound A-1] the “apoptosis by morphology (AO/EB)” value (HeLa cells [1]) was “presence of apoptosis in HELA cells treated with A1 has been confirmed morphologically”, the “cleaved caspase 3, 8, 9 and c-PARP protein levels” value (HeLa cells [2]) was “significant increase” and the IC50 (HEK-293; 24 h) was 105 µM. The IC50 (HEK-293; 48 h) was 209 µM, the IC50 (HEK-293; 72 h) was 25.3 µM and the “intracellular pH (pHi) change” value (HeLa cells [3]) was “reduction of pHi”. For the same molecule, the “extracellular pH (pHe) reached” value (HeLa cells [4]) was 7.3, the “mitochondrial membrane potential (MMP)” value (HeLa cells [5]) was “dose-dependent decrease in MMP” and the “nuclear γ-H2AX foci” value (HeLa cells [6]) was “increase the number of nuclear γ-H2AXfoci”.
